The values below come from publication PMC8425678, “1-Oxo-3,4-dihydroisoquinoline-4-carboxamides as novel druglike inhibitors of poly(ADP-ribose) polymerase (PARP) with favourable ADME characteristics” (Journal of Enzyme Inhibition and Medicinal Chemistry, 2021).

What is called IC50 is the point on the concentration scale where inhibition reaches its midpoint. By inhibition is commonly meant how much of the control response was suppressed. As usually defined, the solubility is how much of the substance goes into solution per volume. A low value points to a poorly soluble substance. As a reminder, the melting point is the temperature, or range, at which the solid turns liquid.

The target of data set [1] is T1, PARP2 (Homo sapiens, UniProt Q9UGN5).
T1 construct: purchased BPS Bioscience (San Diego, CA)
Particulars: cited from earlier work; for selectivity index (SI): PARP2 selectivity.

Data set [2] addresses T2, PARP1 (Homo sapiens, UniProt P09874).
T2 construct: purchased BPS Bioscience (San Diego, CA)
The note with it: cited from earlier work.

The nature of data set [3]: Plasma protein binding determination (RED dialysis). It is filed as in vitro ADME. The note with it: pooled human blood plasma, 37 °C, read-out: plasma protein binding (% bound) (converted). Here is the method: Determination of binding to human blood plasma proteins was carried out using pooled human blood plasma obtained from ten healthy donors. Determination was performed using Thermo Scientific ™ Single-RED dialysis plates. Test solutions of the candidate (10 mM in DMSO) were prepared in blood plasma and in 0.01 M sodium phosphate buffer by dilution in pooled blood plasma to a concentration of 10 μM (test solution 1) and in buffer to a concentration of 10 μM (test solution 2), respectively. The test solutions were transferred to the chambers of the dialysis plate, incubated in an Environmental Shaker – Incubator ES-20/60 (Biosan, Latvia) for 4 h at a temperature of 37 °C at a speed of 130–250 rpm. During the incubation, passive diffusion of the unbound compound occurs, and after 4 h, equilibrium is reached between the chambers with plasma with buffer solution. At the end of the incubation time, samples were taken from the chambers of the plate. HPLC analysis performed using an Agilent 1260 chromatograph (Agilent, USA) allowed determination of the peak area of the compounds in the test samples with preliminary precipitation of proteins with acetonitrile (300 µL of acetonitrile per 100 µL of the reaction mixture). After stopping the reaction, the samples were centrifuged for 10 min at 10,000 rpm and the supernatant was collected.
The concentration of the test compound in the buffer and plasma chambers was calculated using the formula: С=At=4/At=0×10, where At=0 is the value of the peak area of the candidate's test solution on the chromatogram at the initial moment of time;
The % unbound compound was calculated using the formula: %Free=C1/C2×100, where C1 is the concentration value in the buffer chamber;

In data set [4] the target is T1, PARP2. Put plainly: PARP2 colorimetric activity assay kit (BPS Bioscience). It is filed as biochemical. Particulars: for IC50: dose-response, mean (n = 3) ± SD, r^2 in brackets. Here is the method: (§1) The thirty-six 1-oxo-3,4-dihydroisoquinoline-4-carboxamides 3a-aj and 1-oxoisoquinoline-4-carboxamide 11 were tested for inhibitory activity towards PARP1 and PARP2 using the commercially available colorimetric activity assay kit from BPS Bioscience (San Diego, CA) in full accordance of the supplier’s method description[13]^,[14]. The initial screening was performed against PARP1 at 1 µM concentration of each compound, in triplicate (n = 3) measurements.

A short description of data set [5]: Plasma stability determination. Format: in vitro ADME, human. The note with it: 4 h, 37 °C, 10 μM. The protocol: Determination of stability in human blood plasma was carried out using pooled human blood plasma obtained from ten healthy donors. The candidate stock solution (10 mM in DMSO) was diluted with the pooled blood plasma to a concentration of 10 μM (test solution). The test solution was kept in a solid-state thermostat for 4 h at a temperature of 37 °C. HPLC method using an Agilent 1260 chromatograph (Agilent, USA) was employed to determine the peak area of the compounds in the test samples corresponding to the initial test time (before exposure) and the final test time (after incubation in a solid-state thermostat for 4 h at 37 °C) with preliminary precipitation of protein mass with acetonitrile (300 μL MeCN per 100 μL of the reaction mixture). After stopping the reaction, the samples were centrifuged for 10 min at 10,000 rpm and the supernatant was collected. Chromatographic analysis was performed in a gradient elution mode at a flow rate of 1 ml/min.

For data set [6], the target named is T2, PARP1. Put plainly: PARP1 colorimetric activity assay kit (BPS Bioscience). The note with it: for IC50: dose-response, mean (n = 3) ± SD, r^2 in brackets; for inhibition at 1 µM: read-out: PARP1 % inhibition at 1 µM, 1 µM compound, triplicate (n = 3). Format: biochemical. Here is the method:
as §1

The nature of data set [7]: Stability in human liver S9 fraction. It is filed as in vitro ADME. Particulars: human liver S9 0.5 mg/mL, 10 μM compound, 37 °C; intrinsic clearance. The protocol:
(§2) The rate of enzymatic degradation of the compound in liver microsomes was determined by incubating a mixture containing 0.5 mg/mL of pooled human liver microsomes (XenoTech, USA, cat. # H2620), 10 μM of compound tested, 2 mM β-nicotinamide adenine dinucleotide (Carbosynth, UK, cat. # NN10871) and 4 mM magnesium chloride in 0.1 M sodium phosphate buffer (pH 7.4) in a solid-state thermostat at 37 °C. The rate of enzymatic degradation of the compound in human liver S9 fraction was determined by incubating a reaction mixture containing 0.5 mg/mL of pooled S9 human liver fractions (XenoTech, USA, cat # H0610), 10 μM of compound tested, 2 mM β-nicotinamide adenine dinucleotide (Carbosynth, UK, cat # NN10871) and 4 mM magnesium chloride in 0.1 M sodium phosphate buffer (pH 7.4) in a solid-state thermostat at 37 °C. The reaction was stopped with acetonitrile (100 μL MeCN per 100 μL of the reaction mixture). After stopping the reaction, the samples were centrifuged for 10 min at 10,000 rpm. The supernatant was analysed by chromatography using an Agilent 1260 chromatograph (Agilent, United States). Chromatographic analysis was performed in a gradient elution mode at a flow rate of 1 ml/min. A graph of the dependence of the logarithm of the area of the peak of the substance on time was built. The dependent coefficient of this straight line corresponded to the elimination constant k, on the basis of which the half-life of the drug (T1/2) and intrinsic clearance (Clint) were calculated.

The nature of data set [8]: Aqueous PBS solubility determination. Format: physicochemical. Particulars: sodium phosphate buffer, kinetic from dmso stock, pH 7.4 0.01 M phosphate buffer solution, 37 °C. Here is the method: The stock solution of the compound tested in DMSO (10 mM) was diluted with 0.01 M sodium phosphate buffer solution (pH 7.4) to the concentration of 100 µM, 80 µM, 60 µM, 50 µM, 40 µM, 30 µM, 20 µM and 10 µM. The serially diluted solutions were transferred into a 96-well plate (Corning 3635, UV Plate) and the plate was incubated at 37 °C for 2 h using BioSan PST-60HL-4 thermo shaker. The plate was read at the wavelength of 620 nm using spectrophotometric microplate reader Sunrise (Tecan, Australia). The optical density values were plotted against compound concentration and approximated by a linear relationship to determine the aqueous solubility.

Data set [9] in a line: Stability in human liver microsomes. Particulars: HLM 0.5 mg/mL, 10 μM compound, 37 °C; intrinsic clearance. It is filed as in vitro ADME. Here is the method:
as §2
Background: Liver microsomes are vesicles of endoplasmic reticulum, rich in cytochrome P450 enzymes.

Like-named read-outs stand apart in the source and are kept apart here.

T2 sequence (P09874 whole entry): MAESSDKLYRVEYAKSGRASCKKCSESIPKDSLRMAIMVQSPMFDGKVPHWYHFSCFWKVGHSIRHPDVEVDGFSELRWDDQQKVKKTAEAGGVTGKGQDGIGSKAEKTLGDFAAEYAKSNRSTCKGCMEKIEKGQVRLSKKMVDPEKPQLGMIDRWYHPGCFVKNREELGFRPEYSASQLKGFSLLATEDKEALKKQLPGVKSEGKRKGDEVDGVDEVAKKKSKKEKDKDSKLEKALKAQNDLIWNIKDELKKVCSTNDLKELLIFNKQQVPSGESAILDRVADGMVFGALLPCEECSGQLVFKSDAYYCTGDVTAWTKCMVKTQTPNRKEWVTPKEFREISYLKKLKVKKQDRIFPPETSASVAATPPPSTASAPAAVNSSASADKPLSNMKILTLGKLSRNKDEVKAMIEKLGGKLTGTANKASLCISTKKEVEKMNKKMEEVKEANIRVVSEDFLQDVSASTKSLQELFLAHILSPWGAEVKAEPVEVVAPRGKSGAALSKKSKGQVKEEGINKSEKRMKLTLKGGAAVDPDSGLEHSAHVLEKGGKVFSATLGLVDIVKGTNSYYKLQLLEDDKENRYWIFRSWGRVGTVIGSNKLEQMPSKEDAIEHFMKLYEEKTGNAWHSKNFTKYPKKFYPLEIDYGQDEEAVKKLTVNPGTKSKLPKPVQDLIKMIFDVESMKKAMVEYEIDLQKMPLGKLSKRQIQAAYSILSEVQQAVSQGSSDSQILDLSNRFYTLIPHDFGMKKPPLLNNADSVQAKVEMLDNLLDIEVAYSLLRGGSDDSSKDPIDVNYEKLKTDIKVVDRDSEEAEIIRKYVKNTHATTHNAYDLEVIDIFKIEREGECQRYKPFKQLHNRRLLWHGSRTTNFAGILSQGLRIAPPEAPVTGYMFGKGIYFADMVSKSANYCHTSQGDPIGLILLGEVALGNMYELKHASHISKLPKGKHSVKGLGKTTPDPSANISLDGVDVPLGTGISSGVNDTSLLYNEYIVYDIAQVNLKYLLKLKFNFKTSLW
T1 sequence (Q9UGN5 whole entry): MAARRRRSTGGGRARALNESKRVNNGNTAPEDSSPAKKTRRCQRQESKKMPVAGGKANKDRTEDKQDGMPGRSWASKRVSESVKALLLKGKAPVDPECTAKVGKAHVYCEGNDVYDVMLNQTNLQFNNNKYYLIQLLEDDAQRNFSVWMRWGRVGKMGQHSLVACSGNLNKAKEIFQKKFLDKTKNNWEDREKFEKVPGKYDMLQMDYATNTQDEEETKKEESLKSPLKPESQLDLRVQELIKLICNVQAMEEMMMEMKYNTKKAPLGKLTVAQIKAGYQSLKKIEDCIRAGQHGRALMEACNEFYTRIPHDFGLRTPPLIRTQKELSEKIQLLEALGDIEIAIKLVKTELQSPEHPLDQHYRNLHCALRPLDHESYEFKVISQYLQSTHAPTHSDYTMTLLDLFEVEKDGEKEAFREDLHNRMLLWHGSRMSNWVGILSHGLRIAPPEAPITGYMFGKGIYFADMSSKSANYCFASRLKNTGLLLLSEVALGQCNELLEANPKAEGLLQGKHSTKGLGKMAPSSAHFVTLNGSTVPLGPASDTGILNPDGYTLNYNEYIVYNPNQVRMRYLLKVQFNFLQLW

On to `O=C(Oc1cccc2c1CCNC2=O)c1ccccc1` [Compound 1a], for which the “selectivity index (SI)” value in data set [1] is recorded as 16.3. Moreover, the IC50 is 800 nM in data set [1] and 13000 nM in data set [2].

In the case of `O=C(Oc1cccc2c(=O)[nH]ccc12)c1ccccc1` [Compound 1b], in data set [1], the “selectivity index (SI)” value is 60.0 and the IC50 was 150 nM. Besides, the IC50 in [2] was 9000 nM.

In the case of `O=C(Nc1cccc2c(=O)[nH]ccc12)c1ccccc1` [Compound 2], in [1], the IC50 is 1500 nM.

`O=C1NCC(C(=O)N2CCC(N3CCCCC3)CC2)c2ccc(F)cc21` (centres unmarked) [Compound 3aa, 4-([1,4'-Bipiperidine]-1'-carbonyl)-7-fluoro-3,4-dihydroisoquinolin-1(2H)-one]: in data set [3], the fraction unbound at 4 h, 10 µM is 0.29. In data set [4], the “SI, selectivity index (PARP2 over PARP1)” value is on record as 2.17 and inhibition was half-maximal at 29.4 ± 4.5 nM (IC50). The “% compound remaining after incubation with human plasma” value (“% compound remaining after incubation” for short) in [5] worked out at 100%. Also, in data set [6], half-maximal inhibition (IC50) was put at 63.1 ± 5.3 nM and the inhibition at 1 µM was determined as 91.8 ± 0.7%. The “fold better potency compared to 3l” value in [6] (magic fluorine effect, 3aa vs 3l) was about 2.5 fold. In addition, the “Stability in the presence of hepatic S9 fraction” value in data set [7] is reported as 0.1 µL/min/mg. In data set [8], the solubility at 2 h is over 100 µM. Moreover, the “Stability in the presence of human liver microsomes” value in data set [9] was found to be 3.4 µL/min/mg.

Take `CC1(C)CCCN(C2CCN(C(=O)C3CNC(=O)c4cc(F)ccc43)CC2)C1` (centres unmarked) [Compound 3af, 4–(3,3-Dimethyl-[1,4'-bipiperidine]-1'-carbonyl)-7-fluoro-3,4-dihydroisoquinolin-1(2H)-one]: the melting point fell in the range of 182 to 183 °C. In [4], the “SI, selectivity index (PARP2 over PARP1)” value worked out at 5.05 and the IC50 is 19.4 ± 3.7 nM. For the same compound, in [6], 95.6 ± 11.5 nM corresponded to half-maximal inhibition (IC50) and the inhibition at 1 µM was 96.9 ± 0.5%.

As for `CC1(C)CCN(C2CCN(C(=O)C3CNC(=O)c4cc(F)ccc43)CC2)CC1` (centres unmarked) [Compound 3ag, 4–(4,4-Dimethyl-[1,4'-bipiperidine]-1'-carbonyl)-7-fluoro-3,4-dihydroisoquinolin-1(2H)-one], the melting point is 200 to 201 °C. In data set [4], the “SI, selectivity index (PARP2 over PARP1)” value was found to be 4.63 and the IC50 worked out at 22 ± 5.6 nM. In addition, in data set [6], it took 102 ± 9.4 nM to reach half-maximal inhibition (IC50) and the inhibition at 1 µM amounted to 95 ± 0.9%.

`COC1CCN(C2CCN(C(=O)C3CNC(=O)c4cc(F)ccc43)CC2)CC1` (centres unmarked) [Compound 3aj, 7-Fluoro-4–(4-methoxy-[1,4'-bipiperidine]-1'-carbonyl)-3,4-dihydroisoquinolin-1(2H)-one] yielded a melting point of 186 to 187 °C. In data set [4], the “SI, selectivity index (PARP2 over PARP1)” value was 6.05 and the IC50 is 44.1 ± 3.9 nM. Besides, in data set [6], the IC50 stood at 266 ± 25 nM and the inhibition at 1 µM was determined as 90.5 ± 0.1%.

As to `O=C1NCC(C(=O)N2CCC(N3CCCCC3)CC2)c2ccccc21` (centres unmarked) [Compound 3l, 4-([1,4'-Bipiperidine]-1'-carbonyl)-3,4-dihydroisoquinolin-1(2H)-one], the fraction unbound at 4 h, 10 µM in [3] is 0.332. Moreover, in [4], the “SI, selectivity index (PARP2 over PARP1)” value is recorded as 2.23 and half-maximal inhibition (IC50) required 70.1 ± 7.6 nM. The “% compound remaining after incubation” value in data set [5] is reported as 92.6%. The “PARP1 inhibitory potency in words” value in data set [6] (compared with 3l) is on record as “active”. Also, in [6], the IC50 came to 156 ± 5.8 nM and the inhibition at 1 µM stood at 85.2 ± 2.6%. The “Stability in the presence of hepatic S9 fraction” value in data set [7] amounted to 0.3 µL/min/mg. Also, the solubility at 2 h in [8] was over 100 µM. Besides, the “Stability in the presence of human liver microsomes” value in data set [9] came out at 2.6 µL/min/mg.

As for `O=C(c1cc(Cc2n[nH]c(=O)c3ccccc23)ccc1F)N1CCN(C(=O)C2CC2)CC1` [Olaparib, reference compound], in data set [3], the fraction unbound at 4 h, 10 µM is 0.098. Besides, the “% compound remaining after incubation” value in data set [5] is reported as 100%. Further, in data set [7], the “Stability in the presence of hepatic S9 fraction” value is given as 1.1 µL/min/mg. For the same compound, the solubility at 2 h in data set [8] was over 100 µM. Besides, the “Stability in the presence of human liver microsomes” value in data set [9] turned out to be 15 µL/min/mg.
